Measured values as given in patent EP0153678A1, “Cinnamic acid derivatives, processes for the preparation thereof and pharmaceutical compositions” (Tanabe Seiyaku Co., Ltd., priority 1984, dated 1985).
Where a name gives a salt, the structure may show the parent alone.

What was measured:
[1] = system: pulmonary embolism induced by arachidonic acid; assay: Prophylactic effect against pulmonary embolism induced by arachidonic acid in mice (method of Kohler et al.); assay type: in vivo; conditions: for Evalu-tion (shortening rate of the recovery time): ddY male mice, test compound 30 mg/kg orally in 0.25 % CMC, after one hour arachidonic acid 70 mg/kg intravenously; for prophylactic effect against arachidonic acid-induced pulmonary embolism, relative to 3-[4-(3-pyridylmethyl)phenyl]-2-methylacrylic acid hydrochloride: Kohler et al.'s method, times as strong as the known compound
Experimental: After one hour, arachidonic acid (70 mg/10 ml saline solution/kg) was intravenously administered. […] The time from having had difficulty in breathing and laying till starting to move was counted as a recovery time. When the test animal was died, the longest recovery time during the test was counted. The shortening rate of the recovery time was calculated by the following formula for showing the effect of the test compounds.

[2] = Toxicity compared with the known compound (method not described); conditions: fraction of the toxicity of the sodium salt of the known compound

## CC(=Cc1ccc(Cc2cccnc2)cc1)C(=O)O.Cl [3-[4-(3-pyridylmethyl)phenyl]-2-methylacrylic acid hydrochloride, reference compound]
[1]
  Evalu-tion (shortening rate of the recovery time): ± (evaluated as (±) when it was from 20 % to less than 50 %)

## CC(=Cc1ccc(C(=O)c2cccnc2)cc1)C(=O)O [hydrochloride]
[1]
  Evalu-tion (shortening rate of the recovery time): + (evaluated as (+) when it was more than 50 %)

## CCOC(c1ccc(C=C(C)C(=O)[O-])cc1)c1cccnc1.[Na+] (stereo not drawn) [sodium α-methyl-4-(α-ethoxy-3-pyridylmethyl)cinnamate]
[1]
  prophylactic effect against arachidonic acid-induced pulmonary embolism, relative to 3-[4-(3-pyridylmethyl)phenyl]-2-methylacrylic acid hydrochloride: more than 2 times
  Evalu-tion (shortening rate of the recovery time): + (evaluated as (+) when it was more than 50 %)
[2]
  toxicity relative to sodium 3-[4-(3-pyridylmethyl)phenyl]-2-methyl--acrylate: about half

## COC(c1ccc(C=C(C)C(=O)O)cc1)c1cccnc1 (stereo not drawn) [sodium α-methyl-4-(α-methoxy-3-pyridylmethyl)cinnamate]
[1]
  Evalu-tion (shortening rate of the recovery time): + (evaluated as (+) when it was more than 50 %)

## CCCOC(c1ccc(C=C(C)C(=O)[O-])cc1)c1cccnc1.[Na+] (stereo not drawn) [sodium α-methyl-4-(α-n-propoxy-3-pyridylmethyl)cinnamate]
[1]
  Evalu-tion (shortening rate of the recovery time): + (evaluated as (+) when it was more than 50 %)

## CC(=Cc1ccc(C(O)c2cccnc2)cc1)C(=O)O (stereo not drawn) [α-methyl-4-(α-hydroxy-3-pyridylmethyl)cinnamic acid hydrochloride]
[1]
  Evalu-tion (shortening rate of the recovery time): + (evaluated as (+) when it was more than 50 %)

## CC(=Cc1ccc(C(O)c2cccnc2)cc1)C(=O)O (stereo not drawn) [α-methyl-4-(α-hydroxy-3-pyridylmethyl)cinnamic acid]
[1]
  prophylactic effect against arachidonic acid-induced pulmonary embolism, relative to 3-[4-(3-pyridylmethyl)phenyl]-2-methylacrylic acid hydrochloride: more than 2 times
